These results are taken from publication PMC9814779, “A triple farnesoid X receptor and peroxisome proliferator-activated receptor α/δ activator reverses hepatic fibrosis in diet-induced NASH in mice” (Communications Chemistry, 2020).

The structures appear in SMILES notation.

Test [1] relates to DIO NASH. The settings on record: cited from earlier work.
In test [2] the test system is human full-length PPAR response element (PPRE) reporter. As to the kind of experiment: Full-length PPAR response element (PPRE) reporter gene assay in HEK293T cells. In kind it is cell-based. The settings on record: HEK-293T, mean ± SEM, n = 3. An excerpt: (§1) For the hybrid reporter gene assays, the previously reported Gal4-fusion receptor plasmids pFA-CMV-hPPARα-LBD[29], pFA-CMV-hPPARδ-LBD[29], pFA-CMV-hPPARγ-LBD[29], pFA-CMV-hLXRα-LBD[30], pFA-CMV-hLXRβ-LBD[30], pFA-CMV-hRXRα-LBD[31], pFA-CMV-hRXRβ-LBD[31], pFA-CMV-hRXRγ-LBD[31], pFA-CMV-hRARα-LBD[31], pFA-CMV-hRARβ-LBD[31], pFA-CMV-hRARγ-LBD[31], pFA-CMV-hVDR-LBD[31], and pFA-CMV-hCAR-LBD[31] coding for the hinge region and LBD of the canonical isoform of the respective nuclear receptor were used. pFR-Luc (Stratagene) was used as reporter plasmid for Gal4 hybrid reporter gene assays. pcDNA3-hFXR[32] and pSG5-hRXR[33] served for receptor overexpression in the full-length FXR assay and pGL3basic (Promega Corporation, Fitchburg, WI, USA) with a shortened construct of the BSEP promoter cloned into the SacI/NheI cleavage site in front of the luciferase gene[34] was used as reporter. PPRE-pGL3[35] contains the human full-length PPRE (cloned into the SacI/NheI cleavage site in front of the luciferase gene) and was used as reporter plasmid for the full-length PPRE reporter gene assay. pRL-SV40 (Promega) was used in all assays for normalization of transfection efficiency and cell growth.
(§2) Before transfection, medium was changed to Opti-MEM without supplements. […] Luminescence was measured with a Spark 10 M luminometer (Tecan Deutschland GmbH). […]
Background: Reporter assays use an easily measured gene product as a stand-in for the process of interest.

Test [3] concerns nuclear receptors related to PPARs and FXR (LXRα/β, RXRα/β/γ, RARα/β/γ, VDR, CAR). The test is described as follows: Selectivity screening among nuclear receptors (Gal4 hybrid reporter gene assays). The settings on record: three independent experiments. The format is cell-based, human.
Excerpt: as §1, §2

Test [4] addresses T1, human PPARδ ligand-binding domain (Gal4 chimera) (Homo sapiens, UniProt Q03181).
T1 construct: coding for the hinge region and LBD of the canonical isoform of the respective nuclear receptor; expressed in transfected cells; host or cells: HEK293T
T1 sequence (Q03181 211-439 limits assumed): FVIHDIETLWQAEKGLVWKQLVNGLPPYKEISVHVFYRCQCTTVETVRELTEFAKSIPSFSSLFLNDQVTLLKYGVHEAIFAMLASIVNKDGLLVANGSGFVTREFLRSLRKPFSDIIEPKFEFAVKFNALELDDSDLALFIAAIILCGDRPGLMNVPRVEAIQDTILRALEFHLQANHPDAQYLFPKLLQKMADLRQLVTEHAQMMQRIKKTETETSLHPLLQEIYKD
The test is described as follows: Gal4 hybrid reporter gene assay, PPARδ. Also on record: Emax: dose or concentration left out as unconfirmed. In kind it is cell-based.

Consider `CC[C@H]1[C@@H](O)[C@@H]2[C@H](CC[C@]3(C)[C@@H]([C@H](C)CCC(=O)O)CC[C@@H]23)[C@@]2(C)CC[C@@H](O)C[C@@H]12` [OCA, 6α-ethylchenodeoxycholic acid, reference compound], for which the “effects in DIO NASH” value in test [1] is “pronounced anti-steatotic activity and slight anti-fibrotic effects”.

With `CC(C)(C)c1ccc(C(=O)Nc2cccc(CCC(=O)O)c2)c(NC(=O)c2ccc(-c3ccco3)cc2)c1` [compound 41, 3-(3-[4-{tert-Butyl}-2-{4-(2-furyl)}benzamido]phenyl)propanoic acid], the 50% effective concentration (EC50) in test [2] is 170 nM; in test [4] (EC50 [μM] PPARδ, HEK293T, mean ± SEM, n = 3), 0.14 ± 0.01 µM; in test [4] (PPARδ EC50, as stated in text) it was 0.141 µM. The “selectivity among nuclear receptors related to PPARs and FXR” value in test [3] is recorded as “no off-target liability”. In addition, in test [4] (read-out: max. rel. act. PPARδ), the Emax was 34%.

Usually EC50 stands for the midpoint of the concentration-response curve.
